Results taken from patent publication US20230028441A1, “NOVEL HETEROARYL-TRIAZOLE COMPOUNDS AS PESTICIDES” (Bayer Aktiengesellschaft, priority 2019, published 2023).

Experiments:
Type in all cases: in vivo
[1] = system: larvae of the southern green stink bug (Nezara viridula); assay: Nezara viridula spray test; conditions: in Hordeum vulgare, 96 h
Outline: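 Percent mortality of southern green stink bug larvae read 4 days after spraying infested Hordeum vulgare. Test solutions: compound in acetone plus dimethylformamide, diluted with emulsifier-containing water (1000 ppm alkylarylpolyglycol ether).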

[2] = system: adult unfed cat fleas (Ctenocephalides felis); assay: Ctenocephalides felis oral test; conditions: 48 h, 100 ppm in cattle blood, after 2 days
Outline: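 Percent flea mortality recorded at 2 days. Compound was dissolved in dimethyl sulfoxide and diluted into cattle blood, which ~20 unfed adult cat fleas ingested through parafilm from a 37°C-heated chamber, their own chamber kept at room temperature.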

[3] = system: adult engorged female ticks (Rhipicephalus microplus); assay: Rhipicephalus (Boophilus) microplus injection test; conditions: 168 h, egg deposition after 7 days, read-out: efficacy (infertile eggs); for pest or weed control at 0.02 mg: 20 μg/animal; for pest or weed control at 0.004 mg: 4 μg/animal
Outline: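 Efficacy is the share of infertile eggs: 100% means none are fertile, 0% means all are fertile. Egg deposition was checked 7 days after injecting 1 μL of DMSO-diluted compound into the abdomen of five engorged female R. microplus, with doubtful eggs kept about 42 days to hatching. The stock was 10 mg in 0.5 mL DMSO.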

[4] = system: larvae of the banded cucumber beetle (Diabrotica balteata); assay: Diabrotica balteata spray test; conditions: 168 h, after 7 days, wheat seeds, read-out: efficacy (seedlings grown up); for pest or weed control at 32 µg/disc, 100 g/ha: 100 g/ha (=32 μg/well)
Outline: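 Efficacy (%) read at day 7: 100% means seedlings grew like untreated, uninfested controls; 0% means no seedlings grew. Wheat seeds germinated 1 day on agar, sprayed with emulsified compound solution (1000 ppm emulsifier in water), then each well infested with 10-20 larvae.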

[5] = system: southern root-knot nematode (Meloidogyne incognita); assay: Meloidogyne incognita test; conditions: 336 h, after 14 days, read-out: nematicidal activity (gall formation)
Protocol: Solvent: 125.0 parts by weight of acetone
To produce a suitable preparation of active compound, 1 part by weight of active compound is mixed with the stated amount of solvent, and the concentrate is diluted with water to the desired concentration.
Vessels are filled with sand, a solution of the active ingredient, a suspension containing eggs and larvae of the southern root-knot nematode (Meloidogyne incognita) and salad seeds. The salad seeds germinate and the seedlings grow. Galls develop in the roots.
After 14 days the nematicidal activity is determined on the basis of the percentage of gall formation. 100% means no galls were found and 0% means the number of galls found on the roots of the treated plants was equal to that in untreated control plants.

[6] = system: green peach aphid (Myzus persicae); assay: Myzus persicae spray test; conditions: foliar, 120 h, 100 g/ha, after 5 days, Chinese cabbage leaf disks
Protocol: Solvent: 78.0 parts by weight acetone • 1.5 parts by weight dimethylformamide
Emulsifier: alkylarylpolyglycol ether
(§1) To produce a suitable preparation of active compound, 1 part by weight of active compound is mixed with the stated amount of solvents and is diluted with water, containing an emulsifier concentration of 1000 ppm, to the desired concentration. Further test concentrations are prepared by dilution with emulsifier containing water.
Chinese cabbage (Brassica pekinensis) leaf disks infected with all instars of the green peach aphid (Myzus persicae), are sprayed with a preparation of the active ingredient of the desired concentration.
After 5 days mortality in % is determined. 100% means all aphids have been killed and 0% means none of the aphids have been killed.

[7] = system: fall armyworm larvae (Spodoptera frugiperda); assay: Spodoptera frugiperda spray test (maize leaf sections); conditions: 168 h
Outline: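 Percent kill of Spodoptera frugiperda larvae was recorded 7 days after infesting dried, treated maize leaf sections. Spray solutions were made from an acetone/DMF compound preparation diluted with 1000 ppm emulsifier-containing water.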

[8] = system: caterpillars of the fall army worm (Spodoptera frugiperda); assay: Spodoptera frugiperda spray test (cotton leaves); conditions: 168 h
Protocol: Solvent: 14 parts by weight of dimethylformamide
Emulsifier: alkylaryl polyglycol ether
as §1, with “solvent” for “solvents”, “water. Ammonium salt and/or penetration enhancer in a dosage of 1000 ppm are added to the desired concentration if necessary.” for “water.”
Cotton leaves (Gossypium hirsutum) are treated by being sprayed with the preparation of the active compound of the desired concentration and are infested with caterpillars of the fall army worm (Spodoptera frugiperda).
After 7 days mortality in % is determined. 100% means all the caterpillars have been killed and 0% means none of the caterpillars have been killed.

[9] = system: brown planthopper (Nilaparvata lugens); assay: Nilaparvata lugens spray test; conditions: in Oryza sativa, 96 h
Outline: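 Rice plants (Oryza sativa) sprayed with compound in acetone/DMF diluted in water containing 1000 ppm alkylarylpolyglycol ether emulsifier, then infested with planthoppers. Mortality % scored after 4 days (100% = all killed, 0% = none killed).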

[10] = system: cattle tick larvae (Rhipicephalus microplus), strain Parkhurst, resistant against synthetic pyrethroids; assay: Rhipicephalus (Boophilus) microplus in-vitro contact test, larval cattle tick; conditions: 5 μg/cm^2 (=500 g/ha), after 48 hours, read-out: efficacy (larvae dead or moribund)
Outline: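 Efficacy, 100% meaning all larvae dead or moribund, was judged at 48 h from loss of negative geotactic climbing. Larvae of the Parkhurst strain, 20–50 per tube, were exposed at 27° C and 85% humidity to acetone-coated tube surfaces; 900 ppm corresponded to 5 μg/cm^2.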

[11] = system: adult brown dog ticks (Rhipicephalus sanguineus); assay: Rhipicephalus sanguineus in-vitro contact test with adult brown dog ticks; conditions: after 48 hours, read-out: efficacy (ticks dead or moribund); for pest or weed control at 1 µg/cm2, 100 g/ha: 1 μg/cm^2 (=100 g/ha); for pest or weed control at 5 µg/cm2, 500 g/ha: 5 μg/cm^2 (=500 g/ha)
Outline: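 Efficacy is the percentage of adult ticks dead or moribund, meaning immotile or uncoordinated and unable to escape 45-50° C. heat within 5 min. Read 48 h after 5-10 ticks were enclosed at room temperature in acetone-coated glass tubes. Dose 5 μg/cm^2, from a 900 ppm coating solution.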

[12] = system: adult cat fleas (Ctenocephalides felis); assay: Ctenocephalides felis in-vitro contact test, adult cat flea; conditions: 5 μg/cm^2 (=500 g/ha), after 48 hours, read-out: efficacy (fleas dead or moribund)
Outline: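 Efficacy (%) counts fleas that are dead or moribund, meaning unable to escape heat (45-50 °C, ≤5 min) by climbing. Scoring was done 48 h after 5-10 adults were placed at room temperature in glass tubes. The tubes carried a dried acetone film of compound, 5 μg/cm^2 at 900 ppm.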

[13] = system: green peach aphid (Myzus persicae); assay: Myzus persicae oral test; conditions: 120 h
Outline: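 Readout: % mortality at day 5, where 100% = all aphids dead and 0% = none dead. Feeding via parafilm membrane over compound in IPL41 medium (33%+15% sugar); mixed-age population. Stock in acetone (1:100 w/w), water-diluted.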

SMILES | mortality at 100 g/ha [1] [%] | mortality at 500 g/ha [1] [%] | mortality at 100 ppm [2] [%] | pest or weed control at 0.02 mg [3] [%] | pest or weed control at 160 µg/disc, 500 g/ha ([4]; 500 g/ha (=160 μg/well)) [%] | pest or weed control at 20 ppm [5] [%] | mortality at 100 g/ha [6] [%] | mortality at 100 g/ha [7] [%] | pest or weed control at 32 µg/disc, 100 g/ha [4] [%] | mortality at 20 ppm [8] [%] | mortality at 500 g/ha [9] [%] | pest or weed control at 5 µg/cm2 [10] [%] | pest or weed control at 0.004 mg [3] [%] | pest or weed control at 1 µg/cm2, 100 g/ha [11] [%] | pest or weed control at 5 µg/cm2, 500 g/ha [11] [%] | pest or weed control at 5 µg/cm2 [12] [%] | mortality at 4 ppm [13] [%]
CC(NC(=O)c1cc(Cl)cc(C(F)(F)F)c1)c1nc(-c2ncccn2)nn1-c1ncccn1 (stereo not shown) [I-055] | 100 | 100 | 100 | 100 | 100 | 90 |  |  |  |  |  |  |  |  |  |  | 
CON(C)c1nc([C@H](C)NC(=O)c2cc(OC(F)(F)F)cc(C3CC3)c2)n(-c2ncccn2)n1 [I-152] |  | 100 |  |  |  |  | 90 | 100 | 100 | 100 | 100 |  |  |  |  |  | 
C[C@H](NC(=O)c1cc(OC(F)(F)F)cc(C2CC2)c1)c1nc(N2CCOCC2)nn1-c1ncccn1 [I-146] |  | 100 |  |  |  | 100 |  | 100 | 100 |  |  | 90 |  |  |  |  | 
CNc1nc(C(C)NC(=O)c2cc(Br)cc(OC(F)(F)F)c2)n(-c2ncccn2)n1 (stereo not shown) [I-103] | 100 |  | 100 |  |  |  | 90 | 100 | 100 | 100 |  | 100 | 100 | 100 | 100 | 100 | 100
CC(NC(=O)c1cc(OC(F)(F)F)cc(C2CC2)c1)c1nc(N)nn1-c1ncccn1 (stereo not shown) [I-097] | 100 |  | 100 |  |  |  | 100 | 100 | 100 | 100 |  | 90 | 100 |  |  | 90 | 100
CNc1nc(C(C)NC(=O)c2cc(Br)cc(C(F)(F)F)c2)n(-c2ncccn2)n1 (stereo not shown) [I-092] | 100 |  | 100 |  |  |  | 90 | 100 | 100 | 80 |  | 100 | 100 | 100 | 100 | 100 | 100
C[C@H](NC(=O)c1cc(Br)cc(OC(F)(F)F)c1)c1nc(N(C)C)nn1-c1ncccn1 [I-139] |  | 100 |  |  |  |  |  | 100 | 100 | 100 | 100 | 100 |  | 80 | 100 | 100 | 
C[C@H](NC(=O)c1cc(Br)cc(OC(F)(F)F)c1)c1nc(N2CCOCC2)nn1-c1ncccn1 [I-147] |  |  |  |  |  | 100 |  |  | 100 |  |  | 100 |  |  |  |  | 
CC(NC(=O)c1cc(C(F)(F)F)cc(C(F)(F)F)c1)c1nc(N)nn1-c1ccc(C#N)cn1 (stereo not shown) [I-104] |  |  | 100 |  |  |  |  | 100 | 100 | 100 |  | 100 | 100 | 100 | 100 | 100 | 100
CNc1nc(C(C)NC(=O)c2cc(OC(F)(F)F)cc(C3CC3)c2)n(-c2ncccn2)n1 (stereo not shown) [I-101] |  |  | 100 |  |  |  | 90 | 100 | 100 | 100 |  | 100 | 100 | 100 | 100 | 100 | 100
CNc1nc([C@H](C)NC(=O)c2cc(Cl)cc(OC(F)(F)F)c2)n(-c2ncccn2)n1 [I-129] |  | 100 |  |  |  |  | 90 | 100 | 100 | 100 | 90 | 100 |  | 80 | 80 | 100 | 
CC(NC(=O)c1cc(Cl)cc(S(C)(=O)=O)c1)c1nc([S+]([O-])CC(F)(F)F)nn1-c1ccc(Cl)cn1 (stereo not shown) [I-066] |  |  | 100 | 100 |  | 90 |  |  |  |  |  |  | 100 |  |  |  | 
C[C@H](NC(=O)c1cc(Cl)cc(C(C)(C)C#N)c1)c1nc(N)nn1-c1ccc(C#N)cn1 [I-155] |  | 100 |  |  |  |  | 100 | 100 | 100 | 100 | 100 | 100 |  | 100 | 100 | 100 | 
C[C@H](NC(=O)c1cc(Br)cc(Br)c1)c1nc(N(C)C)nn1-c1ncccn1 [I-140] |  | 90 |  |  |  |  | 90 | 100 | 100 | 100 | 90 | 100 |  | 100 | 100 | 100 | 
